Patent EP0012729A1, “Therapeutic compositions containing as active compound a substituted acetic acid or its salt” ("IBIS" ISTITUTO BIOCHIMICO SPERIMENTALE S.p.A., priority 1978, dated 1980)

Tested on: Wistar rats
Experiment: Choleretic activity in the rat, bile fistula method
Format: in vivo
Conditions: for R.S. (dry residue): pooled bile; for ml of bile flow ± s.e.: second series
Description: It is known that the primary effect of a choleretic agent is to increase the bile flow and the quantity of solid substances excreted with the bile. A good choleretic must provide this effect in a sufficiently intense and prolonged manner. In addition, as in the case of all drugs, it must have low acute toxicity and good general tolerability, but in particular must be free from toxic effects on the organ on which it is required to act, i.e. the liver, whether this is in a normal or pathological state. The analysis of the new product in comparison with the best known products for the same therapeutic use has therefore been focused on these aspects. The choleretic activity of the new product has been determined in the rat by using the bile fistula method. Wistar rats of both sexes and having a weight of between 180 and 240 g were used.
The animals, which were kept fasting for 12 hours but with free access to water, were narcotised by ethyl urethane in a dose of 1 g/kg by intra peritoneal or intramuscular injection.
After binding the animals to the retention bed, a median laparatomy was carried out, and when the bile duct had been isolated a cannula needle was inserted into it. A polythene tube was then inserted into those ani mals which were to receive the products intraduodenally, after which a su ture was carried out on the abdominal wall, and the bile was allowed to discharge for 30 minutes after inserting the cannula in the bile duct, so as to allow the discharge to become normal. The bile was then collec ted for one hour.
Having determined the volume of bile discharged during this first hour of collection (base volume), the products under examination were administered at the predetermined doses and by the predetermined methods. The bile excreted by the individual animals was then collected over each hour for a further six hours.
During the experiments, the animals were kept at ambient temperature of about 22°C, and at regular intervals of two hours received 10 ml/kg of physiological solution s.c.
The liquids were administered at a temperature of 37°C.
The bile flow and cholesterol excretion were determined on those bile fractions excreted by the animals over each hour starting from the base hour until the end of the experiment
The dry residue (R.So) was determined on the bile fraction excreted during the base hour and on the total bile fractions excreted during the sub sequent hours. For practical reasons, the determination of the dry residue and of the cholesterol (carried out by the Sperry & Webb method) were carried out on the pool of bile excreted by the entire group of animals subjected to the same treatment instead of on the bile fractions excreted by the individual animals (which was sometimes insufficient for determining the cholesterol).
In compiling the graphs, the differences between the choleresis in the treated animals and that in the controls was calculated over the considered time intervals, and expressed as a percentage of the base choleresis. For this calculation, the following formula was used: [formula] where Cn and C' represent the choleresis (in ml/kg/h for the bile flow, and in mg/kg/h for the dry residue) determined over the considered time interval for the group of treated animals and the group of controls respectively. Cb and C'b represent the base choleresis in the group of treated animals and group of controls respectively.
This index was calculated as the time for halving the maximum choleresis increase recorded under their effect.

C[C@H](CCC(=O)O)[C@H]1CC[C@H]2[C@@H]3C(=O)C[C@@H]4CC(=O)CC[C@]4(C)[C@H]3CC(=O)[C@]12C [Dehydrocholic acid, dehydrocholic acid]
Flow (25 mg/kg p.o., 0 (base hour)): 2,46±0,05 ml/kg/h
R.S. (dry residue) (25 mg/kg p.o., 0 (base hour)): 59,8 mg/kg/h
Flow (25 mg/kg p.o., 1h): 3,33±0,14 ml/kg/h
R.S. (dry residue) (25 mg/kg p.o., 1h): 84,1 mg/kg/h
Flow (25 mg/kg p.o., 2h): 1,88±0,14 ml/kg/h
Flow (25 mg/kg p.o., 3h): 2,19±0,15 ml/kg/h
Flow (25 mg/kg p.o., 4h): 1,92±0,17 ml/kg/h
Flow (25 mg/kg p.o., 5h): 1,77±0,16 ml/kg/h
Flow (25 mg/kg p.o., 6h): 1,29±0,15 ml/kg/h
R.S. (dry residue) (25 mg/kg p.o., subsequent hours 2h-6h): 41,0 mg/kg/h
Flow (50 mg/kg i.d., 0 (base hour)): 2,31±0,15 ml/kg/h
R.S. (dry residue) (50 mg/kg i.d., 0 (base hour)): 61,9 mg/kg/h
Flow (50 mg/kg i.d., 1 h): 3,82±0,26 ml/kg/h
R.S. (dry residue) (50 mg/kg i.d., 1 h): 98,5 mg/kg/h
Flow (50 mg/kg i.d., 2 h): 2,51±0,17 ml/kg/h
Flow (50 mg/kg i.d., 3 h): 2,63±0,19 ml/kg/h
Flow (50 mg/kg i.d., 4 h): 1,93±0,12 ml/kg/h
Flow (50 mg/kg i.d., 5 h): 1,87±0,13 ml/kg/h
Flow (50 mg/kg i.d., 6 h): 1,45±0,14 ml/kg/h
R.S. (dry residue) (50 mg/kg i.d., subsequent hours 2h-6h (printed under 4 h)): 44,5 mg/kg/h
Flow (100 mg/kg i.d., 0 (base hour)): 1,80±0,09 ml/kg/h
R.S. (dry residue) (100 mg/kg i.d., 0 (base hour)): 52,3 mg/kg/h
Flow (100 mg/kg i.d., 1 h): 4,59±0,24 ml/kg/h
R.S. (dry residue) (100 mg/kg i.d., 1 h): 147,0 mg/kg/h
Flow (100 mg/kg i.d., 2 h): 2,45±0,10 ml/kg/h
Flow (100 mg/kg i.d., 3 h): 1,98±0,09 ml/kg/h
Flow (100 mg/kg i.d., 4 h): 1,82±0,09 ml/kg/h
Flow (100 mg/kg i.d., 5 h): 1,82+0,08 ml/kg/h
Flow (100 mg/kg i.d., 6 h): 1,55±0,08 ml/kg/h
R.S. (dry residue) (100 mg/kg i.d., subsequent hours 2h-6h (printed under 4 h)): 49,9 mg/kg/h
Flow (100 mg/kg p.o., 0 (base hour)): 2,23±0,22 ml/kg/h
R.S. (dry residue) (100 mg/kg p.o., 0 (base hour)): 55,4 mg/kg/h
Flow (100 mg/kg p.o., 1h): 3,75±0,75 ml/kg/h
R.S. (dry residue) (100 mg/kg p.o., 1h): 98,6 mg/kg/h
Flow (100 mg/kg p.o., 2h): 2,60±0,24 ml/kg/h
Flow (100 mg/kg p.o., 3h): 2,15±0,28 ml/kg/h
Flow (100 mg/kg p.o., 4h): 2,10±0,24 ml/kg/h
Flow (100 mg/kg p.o., 5h): 1,64±0,20 ml/kg/h
Flow (100 mg/kg p.o., 6h): 1,64±0,24 ml/kg/h
R.S. (dry residue) (100 mg/kg p.o., subsequent hours 2h-6h): 45,5 mg/kg/h
Flow (200 mg/kg i.d., 0 (base hour)): 2,28±0,09 ml/kg/h
R.S. (dry residue) (200 mg/kg i.d., 0 (base hour)): 71,0 mg/kg/h
Flow (200 mg/kg i.d., 1 h): 8,10±0,38 ml/kg/h
R.S. (dry residue) (200 mg/kg i.d., 1 h): 255,0 mg/kg/h
Flow (200 mg/kg i.d., 2 h): 3,76±0,10 ml/kg/h
Flow (200 mg/kg i.d., 3 h): 2,69±0,07 ml/kg/h
Flow (200 mg/kg i.d., 4 h): 2,77±0,13 ml/kg/h
Flow (200 mg/kg i.d., 5 h): 2,34±0,11 ml/kg/h
Flow (200 mg/kg i.d., 6 h): 2,16±0,08 ml/kg/h
R.S. (dry residue) (200 mg/kg i.d., subsequent hours 2h-6h (printed under 4 h)): 67,0 mg/kg/h
Peak choleresis time of appearance (200 mg/kg p.o. (dose given for 1620 only)): 1st hour
Peak choleresis % increase (200 mg/kg p.o. (dose given for 1620 only), increase over controls as percentage of base choleresis): 94%
Duration index (200 mg/kg p.o. (dose given for 1620 only), time for halving the maximum choleresis increase): 45'
Flow (200 mg/kg p.o., 0 (base hour)): 2,75±0,17 ml/kg/h
R.S. (dry residue) (200 mg/kg p.o., 0 (base hour)): 85,8 mg/kg/h
Flow (200 mg/kg p.o., 1h): 5,39±0,24 ml/kg/h
R.S. (dry residue) (200 mg/kg p.o., 1h): 171,9 mg/kg/h
Flow (200 mg/kg p.o., 2h): 3,50±0,13 ml/kg/h
Flow (200 mg/kg p.o., 3h): 2,64±0,19 ml/kg/h
Flow (200 mg/kg p.o., 4h): 2,78±0,18 ml/kg/h
Flow (200 mg/kg p.o., 5h): 2,61±0,13 ml/kg/h
Flow (200 mg/kg p.o., 6h): 2,38±0,14 ml/kg/h
R.S. (dry residue) (200 mg/kg p.o., subsequent hours 2h-6h): 74,9 mg/kg/h
Flow (400 mg/kg p.o., 0 (base hour)): 2,53±0,10 ml/kg/h
R.S. (dry residue) (400 mg/kg p.o., 0 (base hour)): 71,8 mg/kg/h
Flow (400 mg/kg p.o., 1h): 7,68±0,20 ml/kg/h
R.S. (dry residue) (400 mg/kg p.o., 1h): 238,6 mg/kg/h
Flow (400 mg/kg p.o., 2h): 4,70±0,45 ml/kg/h
Flow (400 mg/kg p.o., 3h): 3,06±0,15 ml/kg/h
Flow (400 mg/kg p.o., 4h): 2,59±0,16 ml/kg/h
Flow (400 mg/kg p.o., 5h): 2,29±0,12 ml/kg/h
Flow (400 mg/kg p.o., 6h): 1,97±0,15 ml/kg/h
R.S. (dry residue) (400 mg/kg p.o., subsequent hours 2h-6h): 77,8 mg/kg/h
ml of bile flow ± s.e. (oral by gastric probe 25 mg/kg, 0 (base values)): 2,4±0,21 ml
ml of bile flow ± s.e. (oral by gastric probe 25 mg/kg, 1 h): 3,0±0,25 ml
ml of bile flow ± s.e. (oral by gastric probe 25 mg/kg, 2 h): 2,0±0,12 ml
ml of bile flow ± s.e. (oral by gastric probe 25 mg/kg, 3 h): 1,9±0,11 ml
ml of bile flow ± s.e. (oral by gastric probe 25 mg/kg, 4 h): 1,7±0,13 ml
ml of bile flow ± s.e. (oral by gastric probe 25 mg/kg, 5 h): 1,7±0,10 ml
ml of bile flow ± s.e. (oral by gastric probe 25 mg/kg, 6 h): 1,4±0,11 ml
ml of bile flow ± s.e. (oral by gastric probe 50 mg/kg, 0 (base values)): 2,5±0,16 ml
ml of bile flow ± s.e. (oral by gastric probe 50 mg/kg, 1 h): 3,9±0,18 ml
ml of bile flow ± s.e. (oral by gastric probe 50 mg/kg, 2 h): 2,1±0,16 ml
ml of bile flow ± s.e. (oral by gastric probe 50 mg/kg, 3 h): 1,9±0,14 ml
ml of bile flow ± s.e. (oral by gastric probe 50 mg/kg, 4 h): 1,8±0,17 ml
ml of bile flow ± s.e. (oral by gastric probe 50 mg/kg, 5 h): 1,7±0,11 ml
ml of bile flow ± s.e. (oral by gastric probe 50 mg/kg, 6 h): 1,5±0,13 ml
